Results taken from publication PMC10928712, “High Target Homology Does Not Guarantee Inhibition: Aminothiazoles Emerge as Inhibitors of Plasmodium falciparum” (ACS Infectious Diseases, 2024).

Key:
[1] = system: P. falciparum 3D7-DXPS+; experiment: Growth inhibition of PfDXPS overexpressing parasites (3D7-DXPS+); format: cell-based; conditions: Plasmodium falciparum, 3D7, read-out: PfDXPS IC50
Text: The open reading frame (ORF) encoding 1-deoxy-D-xylulose-5-phosphate synthase (PfDXPS; PF3D7_1337200) was amplified from genomic DNA isolated from unsynchronized P. falciparum 3D7 cultures using the Platinum PCR SuperMix High Fidelity (Invitrogen). Forward and reverse primers contained restriction sites for KpnI and AvrII in sense and antisense orientation, respectively (oligonucleotides pfDXPS-Kpn1-S: […]; pfDXPSmyc-Avr2-AS: […] ). PCR products and the transfection vector pARL1a-hDHFR PfARG-GFP were digested with KpnI and AvrII, purified (Gel extraction Kit and PCR purification kit; Qiagen), and cloned into the transfection vector yielding the construct for overexpression pARL-DXS-strep. XL 10-Gold E. coli ultracompetent cells (Agilent Technologies) were transformed with the generated construct to amplify the plasmid and colonies checked using restriction analysis and sequencing of the plasmid. Bacterial clones carrying the overexpression construct and the empty pARL1a vector (MOCK plasmid) were amplified in overnight cultures, isolated (Plasmid Maxi Kit; QIAGEN), and subsequently used to transfect P. falciparum 3D7 ring-stage parasites, as already described.[59] Briefly, 120 μg of plasmid DNA was centrifuged and air-dried, and the pellet was resuspended in TE buffer and cytomix reagent and mixed with the P. falciparum culture. Parasites were transfected using electroporation and selected with WR 99210. The generation and characterization of the PfTPK overexpression cell line has been reported before.[60]
P. falciparum cultures were treated as described in method I. For target specification toward PfTPK and PfDXPS, compounds were tested in comparison against overexpressing cell lines and the respective MOCK line containing only the transfected vector backbone. Parasite viability/proliferation was determined.

[2] = Metabolic stability in human liver S9 fraction; format: in vitro ADME; conditions: human, pooled liver S9 fraction, 1 μM compound
Description: For the evaluation of combined phase I and phase II metabolic stability, the compound (1 μM) was incubated with 1 mg/mL pooled liver S9 fraction (XenoTech), 2 mM NADPH, 1 mM UDPGA, 10 mM MgCl2, 5 mM GSH, and 0.1 mM PAPS at 37 °C for 0, 5, 15, 30, and 60 min. The metabolic stabilities of testosterone (1 μM), verapamil (1 μM), and propranolol (1 μM) were determined in parallel to confirm the enzymatic activity of the S9 fraction. The incubation was stopped by precipitation of S9 enzymes with two volumes of cold acetonitrile containing internal standard (150 nM diphenhydramine). Samples were stored on ice for 10 min, and precipitated protein was removed by centrifugation (15 min, 4 °C, 4000 rpm). The concentration of the remaining test compound at the different time points was analyzed by LC-MS/MS (TSQ Quantum Access MAX, Thermo Fisher, Dreieich, Germany) and used to determine half-life (t1/2).

[3] = system: P. falciparum Dd2; experiment: Method III growth inhibition assay (HRP2-ELISA, 3 days), Dd2; format: cell-based, Plasmodium falciparum; conditions: Plasmodium falciparum, DD2, chloroquine-resistant Dd2, method III
[4] = system: P. falciparum 3D7; experiment: Method III growth inhibition assay (HRP2-ELISA, 3 days), 3D7; format: cell-based, Plasmodium falciparum; conditions: Plasmodium falciparum, 3D7, 3D7, method III (HRP2 assay), drc package of R; read-out: IC50 P. falciparum 3D7 (method III)

## Cc1nc(N)sc1-c1csc(Nc2ccc(C(F)(F)F)cc2)n1 [compound 1]
[1]
  IC50: 2080 nM
[2]
  half-life at 1 μM: > 4 h
[3]
  IC50: 800 ± 400 nM
[4]
  IC50: 600 ± 200 nM
